Assay results from patent US6630125B2, “18F-labeled choline analogs” (priority 2000, dated 2003).
Like-named read-outs stand apart in the source and are kept apart here.

Tests used:
[1] = system: mice with PC-3 xenografts
Method: Body weight and tumor volume were measured weekly and tumor volume (mm3) was calculated using the formula S2×L/2, where S and L represent the small and large diameters of the tumor, respectively.
A prescribed duration of time was allowed before procurement of heart, liver, lung, blood, kidney, bone (femur), brain (whole), prostate gland, tumor, bladder, and skeletal muscle. The tissues were weighed, and counted for ^18F in a gamma counter, then dissolved in Solvable (Dupont, Boston Mass.) and counted for ^14C in a liquid scintillation counter. For the bladder, the percentage of the injected dose in the urine was determined. For all other tissues, radiotracer uptake was calculated as: […]

[2] = system: PC-3 prostate cancer cells; test: Analysis of radiolabeled metabolites in PC-3 prostate cancer cells; format: cell-based, human; conditions: PC-3 cells, 2 hr
Method: The primary hydrophilic metabolites of choline in mammals is phosphocholine and betaine. […] The HPLC system used a microprocessor-controlled solvent delivery system and a silica column (Adsorbosphere Silica (10μ), 250×4.6 mm, Alltech, Deerfield, Ill.). The column was kept at room temperature and the flow rate was maintained at 1.5 ml/min. […] Fractions of effluent were collected every 0.5 min and first counted for ^18F-radioactivity in a well-counter for experiments involving [^18F]FCH, then transferred to scintillation vials for counting for ^14C-radioactivity. The column was equilibrated for 6 min with Buffer A before injection. After the injection (<100 μl), Buffer A was delivered for 6 min which eluted betaine (3 min) from the column. […] Re-equilibration of the column with 100% A for 6 min preceded the next injection.
Methanol (1 ml) was added to each well and the cells were lysed by maintaining the temperature at 37° C. for 30 min. The methanol phase was transferred to a glass test tube. Each well was rinsed with an additional 0.5 ml methanol which was added to the original fraction. To each tube, 3 ml chloroform and 1 ml 0.25 M sodium phosphate (pH=4.5) were added to separate lipids from water-soluble molecules. After vigorous mixing of the samples for 1 min, the two phases were separated, and a 0.5 ml aliquot of each phase was counted for ^18F and ^14C radioactivity. The aqueous phase was further analyzed for water-soluble metabolites using the gradient-HPLC method previously described.
Cells incubated in 6-well plates for 2 hr with radiotracers were thoroughly washed to remove all extracellular radioactivity. The cells were lysed in methanol and the methanol solution added to chloroform to solubilize all lipophilic metabolites.

[3] = target: T1, yeast choline kinase (Saccharomyces cerevisiae, UniProt P20485); test: In vitro phosphorylation by yeast choline kinase; format: biochemical; conditions: 1 μM choline; for In vitro phosphorylation: 25 mU/ml yeast choline kinase, 23° C., 10 min, n = 5
T1 sequence (P20485 1-582): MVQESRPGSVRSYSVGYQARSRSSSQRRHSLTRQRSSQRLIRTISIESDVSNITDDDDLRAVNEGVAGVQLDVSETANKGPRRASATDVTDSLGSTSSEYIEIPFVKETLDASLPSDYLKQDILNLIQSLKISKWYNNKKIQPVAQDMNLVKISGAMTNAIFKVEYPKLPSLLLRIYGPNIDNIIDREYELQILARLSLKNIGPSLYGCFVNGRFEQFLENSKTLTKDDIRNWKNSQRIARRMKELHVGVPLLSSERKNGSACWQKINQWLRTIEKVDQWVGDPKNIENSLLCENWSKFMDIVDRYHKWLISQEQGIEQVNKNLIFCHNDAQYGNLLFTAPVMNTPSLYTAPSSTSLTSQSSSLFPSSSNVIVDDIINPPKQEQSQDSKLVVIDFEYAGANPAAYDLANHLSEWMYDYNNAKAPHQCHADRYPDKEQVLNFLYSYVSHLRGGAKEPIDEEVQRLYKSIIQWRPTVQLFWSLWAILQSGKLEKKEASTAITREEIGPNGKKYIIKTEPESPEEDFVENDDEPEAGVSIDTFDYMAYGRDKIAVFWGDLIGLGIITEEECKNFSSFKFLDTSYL
Method: The test tube was gently agitated throughout the incubation period. The reaction was stopped by placing the tube in a boiling water bath for 2 min. To serve as controls, some samples were placed directly in the boiling water bath after addition of all substrates. […] The percentage of radioactivity converted to the phosphorylated form was calculated.

[4] = system: patients with prostate cancer; test: PET imaging in patients with prostate cancer
Method: The distribution of FCH in PET imaging studies was evaluated in 14 patients with prostate cancer, 14 patients with breast cancer, and 5 patients with brain tumors. Imaging was performed using the Advance PET scanner (GE Medical Systems, Milwaukee, Wis.). […] In prostate cancer patients, a transmission scan of the pelvic region was obtained before administration of radiotracer. FCH (2.5-5 mCi) was administered intravenously, and dynamic imaging of the pelvis region was commenced for 20-30 min. During image reconstruction, the emission data in the pelvic region were corrected for photon attenuation using the transmission scan. Immediately following the dynamic scan, a whole-body emission scan was performed without transmission scanning for attenuation correction. The images were reconstructed using an Ordered Subset Expectation Maximum (OS-EM) algorithm. Regions-of-interest were drawn manually on the attenuation corrected images for evaluation of FCH kinetics in tissues. Standardized uptake values of FCH uptake in tissues were calculated using the attenuation-corrected images according to the equation: [formula]
Patient 2: Transmission and FCH emission scans of a person with hormone naive clinical stage T2 prostate cancer were commenced over the lower pelvis.
The same patient was scanned with FDG within the same week (FIG. 8).
Patient 4: A person with a history of clinical stage T3b prostate cancer treated by radical retropubic prostatectomy was diagnosed with metastatic disease by bone scan. FCH-PET imaging was performed before and after initiating androgen deprivation therapy. In the first study, whole-body emission scanning was started 5 min after injection, beginning at the pelvic region in order to image the pelvis and prostatic bed before arrival of urinary radioactivity. […] The patient was rescanned 2 weeks after initiating androgen deprivation therapy.
Patient 5: A person was initially diagnosed five years prior with locally advanced clinical stage T3NOMO prostate cancer and underwent radical prostatectomy followed by external beam radiation to the prostate bed. […] The patient was then treated with Zolex and Casodex.

[5] = system: patients with breast cancer; test: PET imaging in patients with breast cancer; format: in vivo, human; conditions: person, metastatic breast cancer
Method: In breast cancer patients, whole-body PET scans were obtained, beginning at 10 min post-administration of FCH. In patients with brain tumors, PET scans of the brain were obtained, beginning at 5 min post-administration of FCH.
Thirteen patients with metastatic breast cancer and one patient with both primary and metastatic breast cancer were each imaged with both FCH-PET and FDG-PET within a period of less than one month.
A person had undergone re-excision of right breast intraductal carcinoma 4 yr prior, then right modified radical mastectomy 3 yr prior followed by tamoxifen chemotherapy. Six months prior to the PET scans, metastatic breast cancer was detected by palpation (right breast sternal mass) and CT (mediastinal and hilar adenopathies, mass in right anterior pelvis). Tamoxifen therapy was stopped. […] Uptake of FCH was also observed in the corresponding tumors: sternal mass (SUV=14.6), mediastinal and hilar adenopathies (SUVs˜8.5), pelvic mass (SUV=6.5). […] Smaller metastases were indicated on the FCH-PET scan in the right chest wall and left lung that were not seen on the FDG-PET scan. Concerning the anterior pelvic tumor, there was observed a homogenous distribution of FDG across the tumor in the FDG-PET scan, whereas the FCH was preferentially distributed on the periphery of the tumor.

[6] = system: PC-3 human prostate cancer cells; test: Accumulation of radiotracers by cultured PC-3 cells; format: cell-based
Method: The incubation media utilized for the experiments differed according to the cancer cell type (Table 1). On the day of the study, the medium was refreshed using a volume of 1 ml in each well. Cells were incubated in control conditions or with the addition of metabolic and growth factor receptor inhibitors to test the sensitivity of uptake of the radiotracers to specific inhibitions. […] Following a 30-min incubation period, the radiotracers (e.g., FDG or FCH) were added (˜2 µCi/well) and the cells were incubated for 2 hr. The cells were washed three times with phosphate buffered saline solution, released from the plates by briefly incubating with 0.05% trypsin in DMEM, transferred to test tubes, and counted for F-18 radioactivity in a gamma counter. The amount of radioactivity in the cells was normalized by the dose administered to each well.
The present work studies the structure-activity relationships for purposes of optimization of the molecule for imaging prostate cancer. […] A number of structural analogs of choline were labeled as N-[^18F]fluoromethyl derivatives via the intermediate [^18F]fluorobromomethane (see Table 3). Uptake of the radiotracers was assessed in cultured PC-3 human prostate cancer cells and in a murine PC-3 xenograft model.

[7] = system: normal human subjects; conditions: cited from earlier work
[8] = system: BALB/c nude mice; test: Acute toxicity study in mice; format: in vivo; conditions: 1 mg/kg body weight
Method: Four unanesthetized BALB/c nude mice were administered 1 mg/kg [^19F]FCH via tail vein injection and monitored for 48 hr. This dose represented an approximately 300,000 fold excess of FCH in comparison to the normal dose that a 70 kg person would receive in a [^18F]FCH study. The mice were euthanized at 48 hr.
Acute toxicity of 1 mg/kg body weight of [^19F]FCH was determined in four untreated BALB/c mice. […] Based on estimates of specific activity of the [^18F]FCH (2 Ci/mmol), the normal dose of FCH in the radiotracer preparation would be a factor of 300,000 times lower than the dose given in this toxicity study.

C[N+](C)(C)CCO [CH, [methyl-^14C]Choline, reference compound]
Uptake in Blood ([1]; 10 min): 2.1 ± 0.3 % dose kg/100 g
Uptake in Brain ([1]; 10 min): 1.4 ± 0.7 % dose kg/100 g
Uptake in Heart ([1]; 10 min): 20.3 ± 7.2 % dose kg/100 g
Uptake in Kidney ([1]; 10 min): 99.0 ± 12.9 % dose kg/100 g
Uptake in Liver ([1]; 10 min): 52.3 ± 11.9 % dose kg/100 g
Uptake in Lung ([1]; 10 min): 26.0 ± 9.6 % dose kg/100 g
Uptake in Prostate ([1]; 10 min): 9.0 ± 6.8 % dose kg/100 g
Uptake in Skeletal Muscle ([1]; 10 min): 4.7 ± 1.7 % dose kg/100 g
Uptake in Tumor ([1]; 10 min): 3.2 ± 1.8 % dose kg/100 g
Uptake in Blood ([1]; 30 min): 1.5 ± 0.9 % dose kg/100 g
Uptake in Brain ([1]; 30 min): 1.0 ± 0.8 % dose kg/100 g
Uptake in Heart ([1]; 30 min): 9.7 ± 1.9 % dose kg/100 g
Uptake in Kidney ([1]; 30 min): 53.4 ± 7.3 % dose kg/100 g
Uptake in Liver ([1]; 30 min): 65.2 ± 19.4 % dose kg/100 g
Uptake in Lung ([1]; 30 min): 9.6 ± 6.6 % dose kg/100 g
Uptake in Prostate ([1]; 30 min): 5.9 ± 2.5 % dose kg/100 g
Uptake in Skeletal Muscle ([1]; 30 min): 2.5 ± 1.5 % dose kg/100 g
Uptake in Tumor ([1]; 30 min): 4.8 ± 1.6 % dose kg/100 g
Uptake in Blood ([1]; 60 min): 2.2 ± 1.0 % dose kg/100 g
Uptake in Brain ([1]; 60 min): 1.7 ± 0.6 % dose kg/100 g
Uptake in Heart ([1]; 60 min): 9.1 ± 2.5 % dose kg/100 g
Uptake in Kidney ([1]; 60 min): 41.5 ± 15.0 % dose kg/100 g
Uptake in Liver ([1]; 60 min): 67.1 ± 49.7 % dose kg/100 g
Uptake in Lung ([1]; 60 min): 16.7 ± 3.7 % dose kg/100 g
Uptake in Prostate ([1]; 60 min): 5.5 ± 2.6 % dose kg/100 g
Uptake in Skeletal Muscle ([1]; 60 min): 2.8 ± 1.7 % dose kg/100 g
Uptake in Tumor ([1]; 60 min): 6.7 ± 2.5 % dose kg/100 g
injected dose in the urinary bladder ([1]; at 30 min): 1%
oxidation in the cancer cells (betaine / fluorobetaine by HPLC) [2]: negligible
In vitro phosphorylation [3]: 55.9 ± 11.0%

OC[C@H]1OC(O)[C@H]([18F])[C@@H](O)[C@@H]1O (some centres unmarked) [FDG, [^18F]fluoro-2-deoxy-glucose, reference compound]
SUV of osseous lesion (pubic ramus) ([4]; Example 11 patient, metastatic prostate cancer): 6.5
SUV values relative to FCH in the same lesions ([4]; Patient 3): approximately one half
SUV index in osseous lesions ([4]; patient #3, FIG. 8): 4.1
Uptake in Blood ([1]; 45 min): 2.8 ± 0.009 % dose kg/100 g
Uptake in Brain ([1]; 45 min): 8.0 ± 0.7 % dose kg/100 g
Uptake in Heart ([1]; 45 min): 48.2 ± 17.9 % dose kg/100 g
Uptake in Kidney ([1]; 45 min): 5.3 ± 1.9 % dose kg/100 g
Uptake in Liver ([1]; 45 min): 1.5 ± 0.4 % dose kg/100 g
Uptake in Lung ([1]; 45 min): 7.4 ± 3.1 % dose kg/100 g
Uptake in Prostate ([1]; 45 min): 2.3 ± 0.4 % dose kg/100 g
Uptake in Skeletal Muscle ([1]; 45 min): 8.3 ± 0.4 % dose kg/100 g
Uptake in Tumor ([1]; 45 min): 8.9 ± 0.7 % dose kg/100 g
SUV of pelvic tumor / pelvic mass [5]: 9.5
SUV of sternal mass [5]: 5.0
SUVs of mediastinal and hilar adenopathies [5]: ~5.5

C[N+](C)(CCO)CC[18F] [HARA-1, 2-[^18F]fluoroethyl-dimethyl-2-hydroxyethyl-ammonium, reference compound]
accumulation by cultured PC-3 cells compared with other tracers ([6]; control conditions): one fifth of the uptake of FCH
Uptake by PC-3 cancer cells, Control ([6]; control, 2 hr incubation): 0.32 ± 0.05 % dose/2 hr/105 cells plated
Uptake by PC-3 cells ([6]; inhibitor none): 0.322 ± 0.054 % dose/2 hr/10^5 cells plated
urinary excretion compared with CH [7]: more prominent urinary excretion of radioactivity
phosphorylation rate, less than for FCH [3]: approximately 30%
In vitro phosphorylation [3]: 43.4 ± 3.4 %

C[N+](C)(CF)CCO.[Cl-] [[^19F]FCH, Dimethylfluoromethyl-2-hydroxyethylammonium Chloride]
behavioural/movement abnormalities ([8]; 48 hr monitoring): Neither were any behavioural/movement abnormalities observed
deaths ([8]; tail vein, up to 48 hr, four mice): No deaths were observed
